Assay results: patent publication US8779141B2, “Viral inhibitors” (Gilead Sciences, Inc., priority 2002, dated 2014)
Converted amounts (≈) assume the structure as drawn.

Legend:
BVDV-1 (strain PE515) = assay: Anti-BVDV assay, virus-induced cytopathic effect in MDBK cells (MTS); format: cell-based, Bovine Viral Diarrhea Virus; conditions: Bovine viral diarrhea virus isolates and strains; Table 9; reduction of virus induced cytopathic effect in MDBK cells by 50%; BVDV strain PE515; mean of 2-5 determinations; read-out: EC50
Description: Madin-Darbey Bovine Kidney (MDBK) cells were maintained in Dulbecco's modified Eagle medium (DMEM) supplemented with BVDV-free 5% fetal calf serum (DMEME-FCS) at 37° C. in a humidified, 5% CO2 atmosphere. BVDV-1 (strain PE515) was used to assess the antiviral activity in MDBK cells. Vero cells were maintained in the same way as MDBK cells. Vero cells were infected with Coxsackie B3 virus (strain Nancy).
Ninety-six-well cell culture plates were seeded with MDBK cells in DMEM-FCS so that cells reached 24 hr later confluency. Then medium was removed and serial 5-fold dilutions of the test compounds were added in a total volume of 100 ul, after which the virus inoculum (100 ul) was added to each well. […] Uninfected cells and cells receiving virus without compound were included in each assay plate. After 5 days, medium was removed and 90 μl of DMEM-FCS and 10 ul of MTS/PMS solution (Promega) was added to each well. Following a 2 hr incubation period at 37° C. the optical density of the wells was read at 498 nm in a microplate reader.

[1] = Cytostatic effect on exponentially growing MDBK cells (MTS); format: cell-based, Bovine; conditions: bovine; Table 9; reduction of growth of exponentially growing MDBK cells by 50%; mean of 2-5 determinations
Description: Madin-Darbey Bovine Kidney (MDBK) cells were maintained in Dulbecco's modified Eagle medium (DMEM) supplemented with BVDV-free 5% fetal calf serum ([…]) at 37° C. in a humidified, 5% CO2 atmosphere. […] Vero cells were maintained in the same way as MDBK cells. […] The effect of the drugs on exponentially growing MDBK cells was assessed as follows. Cells were seeded at a density of 5000 cell/well in 96 well plates in MEM medium (Gibco) supplemented with 10% fetal calf serum, 2 mM L-glutamine (Life Technologies) and bicarbonate (Life Technologies). […] Cultures were then again further incubated for 3 days after which the effect on cell growth was quantified by means of the MTS method (Promega).

Row | Compound | EC50 (BVDV-1 (strain PE515)) [µg/mL] | CC50 at 3 days [1] [µg/mL]
1 | Fc1ccc(Cn2ccc3nc(-c4cc(F)ccc4F)nc-3c2)c(F)c1 [GPC-13, 2-(2,5-Difluorophenyl)-5-[(2,4-difluorophenyl)methyl]-5H-imidazo[4,5-c]pyridine] | 0.067 (≈ 0.188 µM) | > 100
2 | Fc1cccc(F)c1-c1nc2ccn(Cc3ccccc3)cc-2n1 [GPJN-1, 5-Benzyl-2-(2,6-difluorophenyl)-5H-imidazo[4,5-c]pyridine] | 0.24 (≈ 0.747 µM) | > 83.3
3 | Fc1cccc(F)c1Cn1ccc2nc(-c3ccccc3)nc-2c1 [GPJN-3, 5-[(2,6-Difluorophenyl)methyl]-2-phenyl-5H-imidazo[4,5-c]pyridine] | 0.06 (≈ 0.187 µM) | 60 (≈ 187 µM)
4 | c1ccc(Cn2ccc3nc(-c4ccccc4)nc-3c2)cc1 [GPJN-4, 5-Benzyl-2-phenyl-5H-imidazo[4,5-c]pyridine] | 0.04 (≈ 0.14 µM) | 46 (≈ 161 µM)
5 | Clc1ccccc1Cn1ccc2nc(-c3ccccc3)nc-2c1 [GPJN-7, 5-[(2-Chlorophenyl)methyl]-2-phenyl-5H-imidazo[4,5-c]pyridine] | 0.042 (≈ 0.131 µM) | 22 (≈ 68.8 µM)
6 | Clc1cccc(Cn2ccc3nc(-c4ccccc4)nc-3c2)c1 [GPJN-8, 5-[(3-Chlorophenyl)methyl]-2-phenyl-5H-imidazo[4,5-c]pyridine] | 0.086 (≈ 0.269 µM) | 51 (≈ 159 µM)
7 | Cl.Clc1ccc(Cn2ccc3nc(-c4ccccc4)nc-3c2)cc1 [GPJN-9 xHCl, 5-[(4-Chlorophenyl)methyl]-2-phenyl-5H-imidazo[4,5-c]pyridine hydrochloride] | 0.016 | 
8 | Clc1ccc(Cn2ccc3nc(-c4ccccc4)nc-3c2)cc1 [GPJN-9, 5-[(4-Chlorophenyl)methyl]-2-phenyl-5H-imidazo[4,5-c]pyridine] | 0.049 (≈ 0.153 µM) | 
9 | COc1ccccc1Cn1ccc2nc(-c3ccccc3)nc-2c1 [GPJN-11, 5-[(2-Methoxyphenyl)methyl]-2-phenyl-5H-imidazo[4,5-c]pyridine] | 0.032 (≈ 0.101 µM) | 36 (≈ 114 µM)
10 | COc1cccc(Cn2ccc3nc(-c4ccccc4)nc-3c2)c1 [GPJN-12, 5-[(3-Methoxyphenyl)methyl]-2-phenyl-5H-imidazo[4,5-c]pyridine] | 0.059 (≈ 0.187 µM) | 56 (≈ 178 µM)
11 | COc1ccc(Cn2ccc3nc(-c4ccccc4)nc-3c2)cc1 [GPJN-13, 5-[(4-Methoxyphenyl)methyl]-2-phenyl-5H-imidazo[4,5-c]pyridine] | 0.043 (≈ 0.136 µM) | 45 (≈ 143 µM)
12 | c1ccc(CCCn2ccc3nc(-c4ccccc4)nc-3c2)cc1 [GPJN-14, 2-Phenyl-5-(3-phenylpropyl)-5H-imidazo[4,5-c]pyridine] | 0.07 (≈ 0.223 µM) | 40 (≈ 128 µM)
13 | Cc1ccc(Cn2ccc3nc(-c4ccccc4)nc-3c2)cc1 [GPJN-15, 5-[(4-Methylphenyl)methyl]-2-phenyl-5H-imidazo[4,5-c]pyridine] | 0.009 (≈ 0.0301 µM) | 29 (≈ 96.9 µM)
14 | Fc1ccccc1Cn1ccc2nc(-c3ccccc3)nc-2c1 [GPJN-17, 5-[(2-Fluorophenyl)methyl]-2-phenyl-5H-imidazo[4,5-c]pyridine] | 0.097 (≈ 0.32 µM) | 50 (≈ 165 µM)
15 | Fc1cccc(Cn2ccc3nc(-c4ccccc4)nc-3c2)c1 [GPJN-18, 5-[(3-Fluorophenyl)methyl]-2-phenyl-5H-imidazo[4,5-c]pyridine] | 0.019 (≈ 0.0626 µM) | 55 (≈ 181 µM)
16 | Fc1ccc(Cn2ccc3nc(-c4ccccc4)nc-3c2)cc1 [GPJN-19, 5-[(4-Fluorophenyl)methyl]-2-phenyl-5H-imidazo[4,5-c]pyridine] | 0.013 (≈ 0.0429 µM) | 40 (≈ 132 µM)
17 | Cc1ccccc1Cn1ccc2nc(-c3ccccc3)nc-2c1 [GPJN-20, 5-[(2-Methylphenyl)methyl]-2-phenyl-5H-imidazo[4,5-c]pyridine] | 0.165 (≈ 0.551 µM) | 28 (≈ 93.5 µM)
18 | Cc1cccc(Cn2ccc3nc(-c4ccccc4)nc-3c2)c1 [GPJN-21, 5-[(3-Methylphenyl)methyl]-2-phenyl-5H-imidazo[4,5-c]pyridine] | 0.022 (≈ 0.0735 µM) | 22 (≈ 73.5 µM)

Row | Compound | EC50 (BVDV-1 (strain PE515)) [µg/mL] | CC50 at 3 days [1] [µg/mL]
19 | Brc1ccc(Cn2ccc3nc(-c4ccccc4)nc-3c2)cc1 [GPJN-22, 5-[(4-Bromophenyl)methyl]-2-phenyl-5H-imidazo[4,5-c]pyridine] | 0.029 (≈ 0.0796 µM) | 13 (≈ 35.7 µM)
20 | N#Cc1ccc(Cn2ccc3nc(-c4ccccc4)nc-3c2)cc1 [GPJN-23, 4-[(2-Phenyl-5H-imidazo[4,5-c]pyridin-5-yl)methyl]-benzonitrile] | 0.014 (≈ 0.0451 µM) | 46 (≈ 148 µM)
21 | FC(F)(F)c1ccc(Cn2ccc3nc(-c4ccccc4)nc-3c2)cc1 [GPJN-24, 2-Phenyl-5-[[4-(trifluoromethyl)phenyl]methyl]-5H-imidazo[4,5-c]pyridine] | 0.04 (≈ 0.113 µM) | 21 (≈ 59.4 µM)
22 | Clc1ccc(Cn2ccc3nc(-c4ccccc4)nc-3c2)s1 [GPJN-25, 5-[(5-Chloro-2-thienyl)methyl]-2-phenyl-5H-imidazo[4,5-c]pyridine] | 0.009 (≈ 0.0276 µM) | 36 (≈ 110 µM)
23 | c1ccc(-c2nc3ccn(Cc4ccc5ccccc5c4)cc-3n2)cc1 [GPJN-26, 5-(2-Naphthalenylmethyl)-2-phenyl-5H-imidazo[4,5-c]pyridine] | 0.041 (≈ 0.122 µM) | > 100
24 | c1ccc(CCCCn2ccc3nc(-c4ccccc4)nc-3c2)cc1 [GPJN-27, 2-Phenyl-5-(4-phenylbutyl)-5H-imidazo[4,5-c]pyridine] | 0.945 (≈ 2.89 µM) | > 46
25 | CC(C)=CCn1ccc2nc(-c3ccccc3)nc-2c1 [GPJN-28, 5-(3-Methyl-2-butenyl)-2-phenyl-5H-imidazo[4,5-c]pyridine] | 0.325 (≈ 1.23 µM) | > 75
26 | c1ccc(-c2nc3ccn(Cc4ccncc4)cc-3n2)cc1 [GPJN-31, 2-Phenyl-5-(4-pyridinylmethyl)-5H-imidazo[4,5-c]pyridine] | 0.455 (≈ 1.59 µM) | > 100
27 | CC(c1ccccc1)n1ccc2nc(-c3ccccc3)nc-2c1 (stereo not shown) [GPJN-33, 2-Phenyl-5-(1-phenylethyl)-5H-imidazo[4,5-c]pyridine] | 0.2 (≈ 0.668 µM) | 70 (≈ 234 µM)
28 | c1ccc(-c2nc3ccn(Cc4ccccn4)cc-3n2)cc1 [GPJN-34, 2-Phenyl-5-(2-pyridinylmethyl)-5H-imidazo[4,5-c]pyridine] | 0.865 (≈ 3.02 µM) | > 100
29 | c1ccc(-c2nc3ccn(Cc4cccnc4)cc-3n2)cc1 [GPJN-35, 2-Phenyl-5-(3-pyridinylmethyl)-5H-imidazo[4,5-c]pyridine] | 0.365 (≈ 1.27 µM) | > 100
30 | c1ccc(-c2nc3ccn(CC4CCCCC4)cc-3n2)cc1 [GPJN-37, 5-(Cyclohexylmethyl)-2-phenyl-5H-imidazo[4,5-c]pyridine] | 0.161 (≈ 0.553 µM) | 22 (≈ 75.5 µM)
31 | CC(C)CCn1ccc2nc(-c3ccccc3)nc-2c1 [GPJN-38, 5-(3-Methylbutyl)-2-phenyl-5H-imidazo[4,5-c]pyridine] | 0.235 (≈ 0.886 µM) | 50 (≈ 188 µM)
32 | Fc1ccc(Cn2ccc3nc(-c4c(F)cccc4F)nc-3c2)cc1 [GPJN-39, 2-(2,6-Difluorophenyl)-5-[(4-fluorophenyl)methyl]-5H-imidazo[4,5-c]pyridine] | 0.245 (≈ 0.722 µM) | > 100
33 | Fc1cc(F)c(Cn2ccc3nc(-c4c(F)cccc4F)nc-3c2)c(F)c1 [GPJN-41, 2-(2,6-Difluorophenyl)-5-[(2,4,6-trifluorophenyl)methyl]-5H-imidazo[4,5-c]pyridine] | 0.58 (≈ 1.55 µM) | > 100
34 | CCc1nc2ccn(Cc3ccc(Br)cc3)cc-2n1 [GPJN-48, 5-[(4-Bromophenyl)methyl]-2-ethyl-5H-imidazo[4,5-c]pyridine] | 0.351 (≈ 1.11 µM) | > 100
35 | Brc1ccc(Cn2ccc3nc(-c4ccncc4)nc-3c2)cc1 [GPJN-49, 5-[(4-Bromophenyl)methyl]-2-(4-pyridinyl)-5H-imidazo[4,5-c]pyridine] | 0.18 (≈ 0.493 µM) | 62 (≈ 170 µM)
36 | Brc1ccc(Cn2ccc3nc(-c4cccs4)nc-3c2)cc1 [GPJN-53, 5-[(4-Bromophenyl)methyl]-2-(2-thienyl)-5H-imidazo[4,5-c]pyridine] | 0.033 (≈ 0.0891 µM) | 66 (≈ 178 µM)
